Laboratory results from PMC9181126, “Design, Synthesis, Molecular Docking Analysis and Biological Evaluations of 4-[(Quinolin-4-yl)amino]benzamide Derivatives as Novel Anti-Influenza Virus Agents” (International Journal of Molecular Sciences, 2022).
Values joined by “and” are separate entries in the source; they are usually repeats but may differ in a detail not shown here. Equal entries are not always repeated.

Experiments:
in vitro [1] = assay type: cell-based, canine; details: dog
Experimental: (§1) The 3-(4,5-dimethylthiazol-2-yl)-2,5-diphenyltetrazolium bromide (MTT) method was performed to assess the cytotoxicity of target compounds in MDCK cells and HEK293T cells. Firstly, MDCK cells or HEK293T cells were seeded into the 96-well plate. Then, the media containing test compounds replaced the growth media after 48 h. Incubate MDCK cells or HEK293T cells with test compounds for 72 h at 37 °C in a humidified 5% CO2 incubator. Later, MTT solution (5 mg/mL in PBS) was added into each well and plates were incubated for 4 h at 37 °C. Then, add a solubilization solution to lyse cells. Finally, absorbance was read at 620 nm using an ELISA plate reader (Tecan Sunrise) after 3 h of further incubation at 37 °C. We set the values obtained from the wells treated with only DMSO as 100% of viable cells.

MDCK cells = test: in vitro; assay type: cell-based, canine; details: dog, 72 h
Experimental: as §1

in vitro [2] = assay type: cell-based; details: human
Experimental: as §1

HEK293T cells = test: in vitro; assay type: cell-based; details: human, 72 h
Experimental: as §1

[3] = test system: influenza virus A/WSN/33 (H1N1); test: microbe, parasite or virus in culture; assay type: cell-based; details: MDCK, 72 h; for inhibition at 12.5 µM / inhibition at 25 µM / inhibition at 50 µM / inhibition at 100 µM: H1N1|WSN, read-out: Antiviral activity in CPE assay; for EC50: read-out: Cytopathic Effect Assay (A/WSN/33, H1N1) EC50
[4] = test system: influenza virus A/WSN/33 (H1N1); test: Plaque inhibition assay in MDCK cells; assay type: cell-based; details: MDCK, read-out: Plaque Inhibition Assay (A/WSN/33, H1N1) Inhibition Rate; for inhibition at 100 µM: concentration 100 µM
PA-PB1 endonuclease = test system: PA-PB1 endonuclease; set-up: method as in supplement 1-7; details: training and test set compounds collected from literature; ref supplement 1-7; read-out: IC50 value Experimental (PA-PB1 endonuclease inhibitors); cited from earlier work

Which CC50 at 72 h (in vitro [1]) does the source give for `CCCNC(=O)c1ccc(Nc2ccnc3cc(C(F)(F)F)ccc23)cc1` [Compound G03, N-Propyl-4-{[7-(trifluoromethyl)quinolin-4-yl]amino}benzamide] here?
Its CC50 at 72 h is > 100 µM.

And the “MDCK cells survival rate” value (MDCK cells; 12.5 µmol·L−1)?
Its value is 107.23±8.32%.

And the “MDCK cells survival rate” value (MDCK cells; 25 µmol·L−1)?
Its value is 128.70±3.04%.

What about the “MDCK cells survival rate” value (MDCK cells; 50 µmol·L−1) of the same molecule?
The value was 132.67±1.65%.

What about the “MDCK cells survival rate” value (MDCK cells; 100 µmol·L−1) of the same molecule?
Its value is 144.22±4.46%.

And the CC50 at 72 h (in vitro [2])?
The CC50 at 72 h was > 100 µM.

And the “HEK293T cells survival rate” value (HEK293T cells; 3.125 µmol·L−1)?
The value was 98.97±9.80%.

What about the “HEK293T cells survival rate” value (HEK293T cells; 6.25 µmol·L−1) of the same molecule?
The value was 89.61±8.87%.

And the “HEK293T cells survival rate” value (HEK293T cells; 12.5 µmol·L−1)?
The value was 97.78±4.47%.

And the “HEK293T cells survival rate” value (HEK293T cells; 25 µmol·L−1)?
The value was 91.10±7.09%.

And the “HEK293T cells survival rate” value (HEK293T cells; 50 µmol·L−1)?
The value was 84.12±2.84%.

And the “HEK293T cells survival rate” value (HEK293T cells; 100 µmol·L−1)?
The value was 74.22±4.02%.

What about the inhibition at 12.5 µM [3] of the same molecule?
Its inhibition at 12.5 µM is 54.9 ± 4.62%.

What about the inhibition at 25 µM [3] of the same molecule?
The inhibition at 25 µM was 56.7 ± 11.7%.

What about the inhibition at 50 µM [3] of the same molecule?
Its inhibition at 50 µM is 70.3 ± 9.33%.

What about the inhibition at 100 µM [3] of the same molecule?
Its inhibition at 100 µM is 78.7 ± 8.35%.

What about the EC50 [3] of the same molecule?
Its EC50 is 10 ± 1.9 µM.

And the inhibition at 100 µM [4]?
The inhibition at 100 µM was < 10%.

And the melting point?
The melting point was 242.5 to 243.4 °C.

With `Cc1cc(-c2ccccc2)n2nc(C(=O)Nc3sc4c(c3C(N)=O)CCC4)nc2n1` [Compound H03] as the molecule, how does the IC50 (PA-PB1 endonuclease) read?
Its IC50 is 6.2 µM and 7.5 µM.

With `O=C(NC1CCC(O)CC1)c1ccc(Nc2ccnc3cc(C(F)(F)F)ccc23)cc1` (stereo not drawn) [Compound G10, N-(4-Hydroxycyclohexyl)-4-{[7-(trifluoromethyl)quinolin-4-yl]amino}benzamide] as the molecule, how does the CC50 at 72 h (in vitro [1]) read?
Its CC50 at 72 h is > 100 µM.

What about the “MDCK cells survival rate” value (MDCK cells; 12.5 µmol·L−1) of the same molecule?
The value was 84.64±7.10%.

What about the “MDCK cells survival rate” value (MDCK cells; 25 µmol·L−1) of the same molecule?
Its value is 109.11±15.21%.

What about the “MDCK cells survival rate” value (MDCK cells; 50 µmol·L−1) of the same molecule?
The value was 127.95±8.15%.

What about the “MDCK cells survival rate” value (MDCK cells; 100 µmol·L−1) of the same molecule?
The value was 110.17±2.79%.

What about the CC50 at 72 h (in vitro [2]) of the same molecule?
Its CC50 at 72 h is > 100 µM.

And the “HEK293T cells survival rate” value (HEK293T cells; 3.125 µmol·L−1)?
The value was 108.01±12.84%.

What about the “HEK293T cells survival rate” value (HEK293T cells; 6.25 µmol·L−1) of the same molecule?
Its value is 104.56±4.92%.

What about the “HEK293T cells survival rate” value (HEK293T cells; 12.5 µmol·L−1) of the same molecule?
The value was 98.12±8.96%.

And the “HEK293T cells survival rate” value (HEK293T cells; 25 µmol·L−1)?
Its value is 98.50±8.84%.

And the “HEK293T cells survival rate” value (HEK293T cells; 50 µmol·L−1)?
Its value is 99.09±8.41%.

And the “HEK293T cells survival rate” value (HEK293T cells; 100 µmol·L−1)?
The value was 109.24±7.99%.

What about the inhibition at 12.5 µM [3] of the same molecule?
Its inhibition at 12.5 µM is 48.9 ± 2.01%.

What about the inhibition at 25 µM [3] of the same molecule?
Its inhibition at 25 µM is 58 ± 1.69%.

And the inhibition at 50 µM [3]?
Its inhibition at 50 µM is 66.2 ± 2.87%.

What about the inhibition at 100 µM [3] of the same molecule?
The inhibition at 100 µM was 63.8 ± 5.18%.

And the EC50 [3]?
The EC50 was 10.4 ± 0.22 µM.

And the inhibition at 100 µM [4]?
Its inhibition at 100 µM is 7.41%.

What about the melting point of the same molecule?
The melting point was 324 to 325 °C.

What does the source list for `O=C(NCCCN1CCOCC1)c1ccc(Nc2ccnc3cc(C(F)(F)F)ccc23)cc1` [Compound G08, N-(3-Morpholinopropyl)-4-{[7-(trifluoromethyl)quinolin-4-yl]amino}benzamide]?
CC50 at 72 h (in vitro [1]): > 100 µM; MDCK cells survival rate (MDCK cells; 12.5 µmol·L−1): 95.86±1.24%; MDCK cells survival rate (MDCK cells; 25 µmol·L−1): 76.43±4.79%; MDCK cells survival rate (MDCK cells; 50 µmol·L−1): 75.20±0.25%; MDCK cells survival rate (MDCK cells; 100 µmol·L−1): 78.41±2.97%; CC50 at 72 h (in vitro [2]): > 100 µM; HEK293T cells survival rate (HEK293T cells; 3.125 µmol·L−1): 100.86±3.39%; HEK293T cells survival rate (HEK293T cells; 6.25 µmol·L−1): 97.00±3.10%; HEK293T cells survival rate (HEK293T cells; 12.5 µmol·L−1): 95.72±3.30%; HEK293T cells survival rate (HEK293T cells; 25 µmol·L−1): 95.56±2.29%; HEK293T cells survival rate (HEK293T cells; 50 µmol·L−1): 98.07±1.80%; HEK293T cells survival rate (HEK293T cells; 100 µmol·L−1): 112.13±1.41%; inhibition at 12.5 µM [3]: 44.3 ± 3.44%; inhibition at 25 µM [3]: 45.6 ± 9.4%; inhibition at 50 µM [3]: 31.1 ± 8.71%; inhibition at 100 µM [3]: 15.4 ± 0.23%; EC50 [3]: > 100 µM; inhibition at 25 µM ([4]; concentration 25 µM): 11.5%; melting point: 207.3 to 209.1 °C

Which IC50 (PA-PB1 endonuclease) does the source give for `O=C1c2ccccc2C(=O)c2c1cc(Nc1ccccc1)c1nsnc21` [Compound H10] here?
Its IC50 is 9.5 µM.

Which IC50 (PA-PB1 endonuclease) does the source give for `Cc1cc(-c2ccccc2)n2nc(C(=O)Nc3sc4c(c3C(N)=O)CCCCC4)nc2n1` [Compound H01] here?
The IC50 was 1.1 µM.
